Measured values as given in patent US6906205B2, “Spiro and dispiro 1,2,4-trioxolane antimalarials” (Medicines for Malaria Venture MMV, priority 2002, dated 2005).
≈ marks a conversion by molar mass, not a printed value.

Tests used:
[1] = system: P. falciparum K1 strain (Thailand resistant to chloroquine); test: semiautomated microdilution assay, [3H]-hypoxanthine incorporation, K1 strain; type: cell-based, Plasmodium falciparum; settings: K1 strain, 72 h incubation
Method: Various OZ compounds were tested by the semiautomated microdilution assay against intraerythrocytic forms of Plasmodium falciparum derived from asynchronous stock cultures.
Fifty percent inhibitory concentration (IC50) were estimated by Logit regression analysis.

[2] = system: ANKA strain of P. berghei; test: single dose STI in vivo screen in infected mice; design: species or system Plasmodium berghei; settings: for Activity (%) po / Activity (%) sc / Activity (%) SSVpo / Activity (%) 3 mg/kg SSV po / Activity (%) 10 mg/kg SSV po: percent reduction in parasitemia day 3 post-infection; for Activity (%) po / Activity (%) sc / Activity (%) SSVpo: mice; for Activity (%) SSVpo: single po dose in standard suspending vehicle (SSV); for Survival (days) SSVpo: single po dose in SSV; for Activity (%) 3 mg/kg SSV po / Survival (days) 3 mg/kg SSV po: single 3 mg/kg po in SSV; for Survival (days) 10 mg/kg SSV po / Activity (%) 10 mg/kg SSV po: single 10 mg/kg po in SSV
Method: In the single dose STI in vivo screen, Moro SPF or NMRI mice infected with the ANKA strain of P. berghei (groups of 3-5 mice) were treated on day one post-infection with trioxolanes dissolved or suspended in 3% ethanol and 7% Tween 80. […] SSV consists of 0.5% w/v CMC, 0.5% v/v benzyl alcohol, 0.4% v/v Tween 80, and 0.9% w/v sodium chloride in water. Antimalarial activity was measured by percent reduction in parasitemia on day three post-infection and survival times compared to an untreated control group. Survival to day 30 post-infection is considered to be a cure. […] Other factors influencing antimalarial activity include the stability of carbon radicals formed by β-scission subsequent to the initial electron transfer to the peroxide bond and the influence of steric effects remote from the peroxide bond on the interactions between carbon radicals and potential drug targets.

[3] = single 10 mg/kg po in 3% ethanol and 7% Tween 80
[4] = single 10 mg/kg sc in 3% ethanol and 7% Tween 80

| Compound | IC50 (ng/ml) K1 [1] | Activity (%) 3 mg/kg SSV po [2] | Survival (days) 10 mg/kg SSV po [2] | Activity (%) 10 mg/kg SSV po [2] | further results |
| --- | --- | --- | --- | --- | --- |
| CN(C)C(=O)N1CCC2(CC1)OOC1(O2)C2CC3CC(C2)CC1C3 (stereo not drawn) [OZ133] | 0.70 ng/mL (≈ 2.08 nM) |  |  |  | Activity (%) po [2, 3]: 94%; Activity (%) sc [2, 4]: 72%; Activity (%) SSVpo [2]: 97%; Survival (days) po ([2]; single 10 mg/kg po in 3% ethanol and 7% Tween 80, untreated control 5.6 ± 0.3): 7.0 days; Survival (days) sc ([2]; single 10 mg/kg sc in 3% ethanol and 7% Tween 80, untreated control 5.6 ± 0.3): 7.0 days; Survival (days) SSVpo ([2]; untreated control 5.6 ± 0.3): 7.3 days |
| CCOC(=O)c1ccc([C@H]2CC[C@]3(CC2)OOC2(O3)C3CC4CC(C3)CC2C4)cc1 (stereo partly drawn) [OZ164] |  |  |  |  | IC50 ([1]; Plasmodium falciparum, read-out: IC50 (ng/ml) K1): 59 ng/mL (≈ 143 nM); Activity (%) po [2, 3]: 11%; Activity (%) sc [2, 4]: 7%; Activity (%) SSVpo [2]: 0%; Survival (days) SSVpo ([2]; untreated control 5.6 ± 0.3): 5.7 days |
| NC(=O)N1CCC2(CC1)OOC1(O2)C2CC3CC(C2)CC1C3 (stereo not drawn) [OZ199] | 0.69 ng/mL (≈ 2.24 nM) |  |  |  |  |
| O=C(NC[C@H]1CC[C@]2(CC1)OO[C@]1(O2)C2CC3CC(C2)CC1C3)c1cccnc1 [OZ273] | 0.97 ng/mL (≈ 2.43 nM) | 64% |  |  |  |
| NC(=O)c1ccc(NC[C@H]2CC[C@]3(CC2)OOC2(O3)C3CC4CC(C3)CC2C4)cc1 (stereo partly drawn) [OZ286] | 0.94 ng/mL (≈ 2.28 nM) | 60% | 8.7 days |  |  |
| CCOC(=O)CNC[C@H]1CC[C@]2(CC1)OO[C@]1(O2)C2CC3CC(C2)CC1C3 [OZ290] | 0.42 ng/mL (≈ 1.11 nM) | 95% | 9.0 days |  |  |
| NCCNC(=O)C[C@H]1CC[C@]2(CC1)OO[C@]1(O2)C2CC3CC(C2)CC1C3 [OZ305] | 1.8 ng/mL (≈ 4.94 nM) | 96% | 9.2 days | 99.93% |  |
| CS(=O)(=O)N(CC(N)=O)C[C@H]1CC[C@]2(CC1)OO[C@]1(O2)C2CC3CC(C2)CC1C3 [OZ308] |  | 30% | 7.8 days | 86% |  |
| Cn1ccnc1S(=O)(=O)C[C@H]1CC[C@]2(CC1)OO[C@]1(O2)C2CC3CC(C2)CC1C3 [OZ310] |  | 38% | 7.8 days | 81% |  |
| NC(=O)C1CCN(C(=O)C[C@H]2CC[C@]3(CC2)OO[C@]2(O3)C3CC4CC(C3)CC2C4)CC1 [OZ311] |  | 40% | 8.6 days | 80% |  |
| O=C(C[C@H]1CC[C@]2(CC1)OO[C@]1(O2)C2CC3CC(C2)CC1C3)N1CCN(c2ncccn2)CC1 [OZ314] |  | 11% |  | 13% |  |
| Cc1ccc(S(=O)(=O)O)cc1.N[C@H]1CC[C@H](NC(=O)C[C@H]2CC[C@]3(CC2)OO[C@]2(O3)C3CC4CC(C3)CC2C4)CC1 [OZ315] |  | 92% |  |  |  |
| O=C(CNC(=O)c1cccnc1)NC[C@H]1CC[C@]2(CC1)OO[C@]1(O2)C2CC3CC(C2)CC1C3 [OZ316] |  | 7% | 10.0 days | 69% |  |
| CCOC(=O)CCNCC1CCC2(CC1)OOC1(O2)C2CC3CC(C2)CC1C3.Cc1ccc(S(=O)(=O)O)cc1 (stereo not drawn) [OZ318] |  | 29% |  | 88% |  |
| NC(=O)c1cn(C[C@H]2CC[C@]3(CC2)OO[C@]2(O3)C3CC4CC(C3)CC2C4)cn1 [OZ320] | 0.68 ng/mL (≈ 1.75 nM) | 92% | 10.4 days | 99.76% | Survival (days) 3 mg/kg SSV po [2]: 11.8 days |
| NC(=O)c1cncn1C[C@H]1CC[C@]2(CC1)OO[C@]1(O2)C2CC3CC(C2)CC1C3 [OZ321] |  | 64% | 14.0 days | 99.77% |  |

| Compound | IC50 (ng/ml) K1 [1] | Activity (%) 3 mg/kg SSV po [2] | Survival (days) 10 mg/kg SSV po [2] | Activity (%) 10 mg/kg SSV po [2] | further results |
| --- | --- | --- | --- | --- | --- |
| O=CNCC(=O)NC[C@H]1CC[C@]2(CC1)OO[C@]1(O2)C2CC3CC(C2)CC1C3 [OZ322] | 0.90 ng/mL (≈ 2.38 nM) | 61% | 10.0 days | 98% |  |
| O=S(=O)(C[C@H]1CC[C@]2(CC1)OO[C@]1(O2)C2CC3CC(C2)CC1C3)c1cccc[n+]1[O-] [OZ324] |  |  |  | 60% |  |
| c1cnc(OC[C@H]2CC[C@]3(CC2)OO[C@]2(O3)C3CC4CC(C3)CC2C4)nc1 [OZ325] | 0.62 ng/mL (≈ 1.66 nM) | 30% | 8.8 days | 99.43% |  |
| c1cnc(NC[C@H]2CC[C@]3(CC2)OO[C@]2(O3)C3CC4CC(C3)CC2C4)nc1 [OZ326] | 0.65 ng/mL (≈ 1.75 nM) | 7% | 7.4 days | 80% |  |
| Cn1nnnc1SC[C@H]1CC[C@]2(CC1)OO[C@]1(O2)C2CC3CC(C2)CC1C3 [OZ331] |  | 66% | 9.0 days | 99.47% |  |
| Cn1nnnc1S(=O)(=O)C[C@H]1CC[C@]2(CC1)OO[C@]1(O2)C2CC3CC(C2)CC1C3 [OZ332] |  | 0% |  | 8% |  |
| O=C(NC[C@H]1CC[C@]2(CC1)OO[C@]1(O2)C2CC3CC(C2)CC1C3)[C@@H]1CCCN1 [OZ337] |  | 97% | 8.6 days | 99.92% | Survival (days) 3 mg/kg SSV po [2]: 11.6 days |
| N[C@H]1CCN(C(=O)C[C@H]2CC[C@]3(CC2)OO[C@]2(O3)C3CC4CC(C3)CC2C4)C1 [OZ338] |  | 99.80% | 9.8 days | 99.93% |  |
| N=C(N)NC(=O)C[C@H]1CC[C@]2(CC1)OO[C@]1(O2)C2CC3CC(C2)CC1C3 [OZ341] |  | 32% | 8.0 days | 97% |  |
| O=C(C[C@H]1CC[C@]2(CC1)OO[C@]1(O2)C2CC3CC(C2)CC1C3)N1CCS(=O)(=O)CC1 [OZ342] |  | 0% | 6.8 days | 27% |  |
| CS(=O)(=O)N1CCN(C(=O)C[C@H]2CC[C@]3(CC2)OO[C@]2(O3)C3CC4CC(C3)CC2C4)CC1 [OZ344] |  | 0% | 7.8 days | 17% | Survival (days) 3 mg/kg SSV po [2]: 7.4 days |
| CS(=O)(=O)C1CCN(C(=O)C[C@H]2CC[C@]3(CC2)OO[C@]2(O3)C3CC4CC(C3)CC2C4)CC1 [OZ345] |  | 0% | 9.2 days | 75% | Survival (days) 3 mg/kg SSV po [2]: 6.6 days |
| CS(=O)(=O)CC(=O)NC[C@H]1CC[C@]2(CC1)OO[C@]1(O2)C2CC3CC(C2)CC1C3 [OZ350] |  | 69% | 10.4 days | 99.17% | Survival (days) 3 mg/kg SSV po [2]: 9.6 days |
| c1c[nH]c(C[C@H]2CC[C@]3(CC2)OO[C@]2(O3)C3CC4CC(C3)CC2C4)n1 [OZ355] |  | 0% | 7.0 days | 71% | Survival (days) 3 mg/kg SSV po [2]: 6.2 days |
| O=C(NC[C@H]1CC[C@]2(CC1)OO[C@]1(O2)C2CC3CC(C2)CC1C3)c1cnccn1 [OZ356] |  | 87% | 8.6 days | 99.64% | Survival (days) 3 mg/kg SSV po [2]: 8.0 days |
| N[C@H]1CC[C@]2(CC1)OO[C@]1(O2)C2CC3CC(C2)CC1C3 [OZ362] |  | 58% | 9.8 days | 98% | Survival (days) 3 mg/kg SSV po [2]: 7.0 days |
